Measurements: PubChem BioAssay (NCI)
Values joined by “and” are separate entries in the source; they are usually repeats but may differ in a detail not shown here. Equal entries are not always repeated.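 Growth conditions: 96-well plates. Treatment: test compound, 48 hours, 5 concentrations. Analysis: linear interpolation between bracketing concentrations; unreached endpoints set to highest concentration. GI50 is the concentration that inhibits growth by half. TGI: total growth inhibition.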

Tests used:
Assay in all cases: NCI-60 cell line screen, 48 h
[1] = test system: 786-0 renal
[2] = test system: A549 NSCLC
[3] = test system: ACHN renal
[4] = test system: IGROV1 ovarian
[5] = test system: NCI-H460 lung
[6] = test system: OVCAR-3 ovarian
[7] = test system: RXF 393 renal
[8] = test system: U251 CNS
[9] = test system: UACC-257 melanoma
[10] = test system: UO-31 renal

Compound | GI50 [1] | TGI [1] | GI50 [2] | TGI [2] | GI50 [3] [µM] | TGI [3] | GI50 [4] | TGI [4] | GI50 [5] | TGI [5] | GI50 [6] [µM] | TGI [6] | GI50 [7] | TGI [7] | GI50 [8] | TGI [8] | GI50 [9] [µM] | TGI [9] | GI50 [10] [µM] | TGI [10]
Cc1cc(S(=O)(=O)Nc2nnc(-c3ccco3)c(-c3ccco3)n2)c(SCc2ccccc2)cc1Cl | 38.8 µM | > 100 µM | 34.7 µM | > 100 µM | 20.2 | 41.9 µM | 32.4 µM | > 100 µM | 31.6 µM | 83.5 µM | 26.2 | 50.9 µM | 22.8 µM | 47.6 µM | 25.7 µM | 62.2 µM | 25.9 | 67.6 µM | 21.7 | 50.4 µM
O=C(CSc1nc2ccc([N+](=O)[O-])cc2[nH]1)Nc1cccc(C(F)(F)F)c1 | 2.98 µM | 13.1 µM | 2.3 µM | 12.7 µM | 2.42 | 8.21 µM | 2.87 µM | 14.7 µM | 2.88 µM | 11.3 µM | 1.66 | 11 µM | 2 µM | 8.02 µM | 2.28 µM | 12.2 µM | 1.33 | 6.63 µM | 1.81 | 8.9 µM
Nc1ccc(CCN2CCN(c3cccc(C(F)(F)F)c3)CC2)cc1 | – | > 100 µM | – | > 100 µM | – | > 100 µM | – | > 100 µM | – | > 100 µM | – | > 100 µM | – | > 100 µM | – | > 100 µM | – | > 100 µM | – | > 100 µM
Cc1c2cc[n+](C)cc2c(C)c2c1[nH]c1ccc(OC(C)C)cc12 | 0.223 µM and 1.41 µM | 9.1 µM and 32.5 µM | – | > 100 µM | – | > 100 µM | – | 22.3 µM and 29.5 µM | – | 11.8 µM and 13.6 µM | – | 14.6 µM and 26.7 µM | 7.26 µM and 20.4 µM | > 100 µM | 0.145 µM and 0.39 µM | 2.93 µM and 9.46 µM | – | 8.06 µM and 11.7 µM | – | > 100 µM
Cc1c(C(=O)CCl)c(=O)n(-c2ccccc2)n1C | 10.7 µM | 24.3 µM | 11.6 µM | 27.4 µM | 4.54 | 16.6 µM | 2.19 µM | 6.92 µM | 7.94 µM | 32.1 µM | 1.98 | 4.94 µM | 1.76 µM | 6.11 µM | 11.4 µM | 26.2 µM | 2.58 | 16.3 µM | 3.24 | 18.5 µM
O=C1c2cccnc2-c2nc(-c3ccccn3)cc3c2c1nc1ccccc13 | 0.0825 µM | 0.26 µM | 1.38 µM | 3.39 µM | 0.0333 | 0.368 µM | 0.099 µM | 0.305 µM | 0.0616 µM | 0.268 µM | 0.161 | 0.309 µM | 0.285 µM | 5.84 µM | 0.149 µM | 0.306 µM | 0.533 | 1.97 µM | 0.0539 | 0.219 µM
Cc1c2ncccc2c(C)c2c1[nH]c1ccc(O)cc12 | 5.25 µM | 15.6 µM and 11.6 µM | 4.89 µM and 1.93 µM | 15.4 µM and 13 µM | 3.06 | 12.4 µM and 18.7 µM | 7.29 µM and 11.6 µM | 21.5 µM and 102 µM | 2.78 µM and 1.6 µM | 12.8 µM and 7.17 µM | 4.01 | 20 µM | 10.7 µM | 9.81 µM and 43 µM | 9.94 µM and 4.34 µM | 13.9 µM and 21.6 µM | 27.3 | 25.2 µM and 89 µM | 8.04 | 16.7 µM and 28.4 µM
CCC12CCC(O)C1N(C)CCC2Sc1ccccc1 (stereo not drawn) | – | > 100 µM | – | > 100 µM | – | > 100 µM | – | > 100 µM | – | > 100 µM | – | > 100 µM | – | > 100 µM | – | > 100 µM | – | > 100 µM | – | > 100 µM
N#C[C@]12CC3(CC[C@H]1CC1(C2)OCCO1)OCCO3 | – | > 100 µM | – | > 100 µM | – | > 100 µM | – | > 100 µM | – | > 100 µM | – | > 100 µM | – | > 100 µM | – | > 100 µM | – | > 100 µM | – | > 100 µM
COc1ccc(/C=C/C(=O)/C=C(/C=C/c2ccc(OC)c(OC)c2)OB(F)F)cc1OC | 1.07 µM | 2.93 µM | 2.24 µM | 7.62 µM | 0.352 | 1.98 µM | 0.486 µM | 4.41 µM | 1.68 µM | 4.58 µM | 0.324 | 1.04 µM | 0.34 µM | 1.31 µM | 0.807 µM | 2.31 µM | 1.76 | 5.55 µM | 0.652 | 3.72 µM
Cn1cc(-c2nc(-c3c[nH]c4ncccc34)cs2)c2cc(Cl)ccc21 | 4.62 µM | > 100 µM | 3.94 µM | > 100 µM | 3.6 | > 100 µM | 4.54 µM | > 100 µM | 3.2 µM | > 100 µM | 7.47 | 29.7 µM | 4.63 µM | > 100 µM | 3.85 µM | 30.8 µM | 3.26 | 16.5 µM | 2.81 | 75.5 µM
